Experimental data: patent publication US20090305993A1, “METHODS AND COMPOSITION FOR THE TREATMENT OF GASTROINTESTINAL DISORDERS” (IRONWOOD PHARMACEUTICALS, INC., priority 2006, published 2009)
Where two headings read alike, the source gives them in different places. Where a SMILES comes first, the peptide text is derived from it. Bridges are numbered along the chain shown (N, C = ends).

Legend:
[1] = test system: CD1 female mice; test: murine gastrointestinal transit assay, chronic dosing; type: in vivo, mouse; conditions: oral, daily for 5 days; SEQ ID NO:3 0.06 or 0.25 mg/kg; FIG. 4c
Experimental: The identical experiment was performed to determine if SEQ ID NO:3 is effective in a chronic dosing treatment regimen. Briefly, 8 week old CD1 female mice are dosed orally once a day for 5 days with either SEQ ID NO:3 (0.06 mg/kg or 0.25 mg/kg in 20 mM Tris pH 7.5) or vehicle alone (20 mM Tris pH 7.5). On the 5th day, a GIT assay is performed identical to that above except 200 μl of a 10% charcoal solution is administered. […] The results are shown side by side with acute dosing (1 day).

[2] = test system: female Wistar rats; test: partial restraint stress-induced hyperalgesia model; type: in vivo, rat; conditions: oral 0.3 and 3.0 μg/kg, distending pressure 15 mm Hg, p<0.0001, FIG. 7b
Experimental: Five groups of female Wistar rats (weighing 200-250 g each), were surgically prepared for electromyography as described (Morteau et al. 1994 Dig Dis Sci 39:1239-48) and were used to evaluate the effects of SEQ ID NO:3 on colorectal sensitivity and compliance after a 2 hour partial restraint stress session. Partial restraint stress (PRS), a relatively mild stress, was induced as previously described (Morteau et al. 1994 Dig Dis Sci 39:1239-48). Female rats were lightly anesthetized with diethyl ether and their shoulders, upper forelimbs and thoracic trunk were wrapped in a confining harness of paper tape to restrict, but not prevent body movements. Control sham-stress animals were anesthetized but not wrapped. […] Electrical activity was recorded with an electroencephalograph (Mini VIII, Alvar, Paris, France) using a short time constant (0.03 sec.) to remove low-frequency signals (<3 Hz) and a paper speed of 3.6 cm/minute. […] Colonic pressure and balloon volume were continuously monitored on a potentiometric recorder (L6514, Linseis, Selb, Germany) with a paper speed of 1.0 cm/minute. The number of spike bursts, corresponding to abdominal contractions, was evaluated per 5-minute period. Colorectal volumes were determined as the maximal volume obtained for each stage of distension using the potentiometric recorder. […] The values were expressed as mean±SEM.

[3] = target: T1, GC-C receptors on the cell surface of human colonic cells (T84 cells) (Homo sapiens, UniProt P25092); test: competitive radioligand-binding assay on T84 cells
T1 construct: host or cells: T84 cells (whole cells in suspension)
Experimental: The radiolabeled tracer used in these experiments was ^125I-SEQ ID NO:7. To determine binding constants, competitive inhibition of binding was used. T84 cells were cultured in T-150 plastic flasks in DMEM and Ham's F-12 medium containing 5% fetal bovine serum. Monolayers at 60-70% confluency (approximately 10^7 cells) were collected by gentle scraping followed by centrifugation, and washed twice in 50 mL of phosphate-buffered saline (PBS). The cells were resuspended in 1 mL DMEM containing 20 mM […] (Hepes), pH 7.0 and 0.5% bovine serum albumin (BSA). T84 cells were incubated with a constant amount of ^125I-SEQ ID NO:7 containing various concentrations of cold competitor. Free ^125I-SEQ ID NO:7 was separated from bound tracer by rapid suction filtration. The binding reactions were carried out in 1.5 mL microfuge tubes in 0.24 mL of DMEM/20 mM Hepes pH 7.0/0.5% BSA containing: 2.5×10^5 T84 cells (0.25 mg protein), 200,000 cpm ^125I-SEQ ID NO:7 (41 fmol, […]), and 0.01 to 1,000 nM competitor. Binding assays at pH 5.0 were done in DMEM/20 mM 2-(N-morpholino) ethanesulfonic acid (Mes), pH 5.0. Binding assays in pH 8.0 were done in DMEM/20 mM Hepes/50 mM sodium bicarbonate pH 8.0. One sample contained no competitor (B0) and another contained no cells. After incubation at 37° C. for 1 h, the reaction mixtures were applied to Whatman GF/B glass-fiber filters by suction filtration. The filters were then rinsed with 10 mL ice-cold PBS buffer, inserted into plastic tubes, and added to 2 mL scintillation fluid. Radioactivity was measured in a LS 6500 liquid scintillation counter (Beckman-Coulter). The percent bound in each sample is calculated by the equation:
% B/B0=(sample cpm−no cells cpm)×100/(B0 cpm−no cells cpm)
Competitive radioligand-binding curves were generated using the Graphpad PRISM™ computer program. […] The apparent dissociation equilibrium constant (Ki) for each competitor was obtained from the IC50 values and the previously reported estimate of the dissociation constant for the radioligand, Kd≈15 nM (Hamra et al. 1997 PNAS 2705-10) and the method of Cheng and Prusoff 1973 Biochem Pharmacol 22:3099-108. Using a two site model, high and low affinity-binding sites were identified on T84 cells (Ki1 and Ki2) for all the test agents. At pH 7.0. for SEQ ID NO:3 Ki1 ranged from 0.89-1.23 nM and Ki2 ranged from 88.9-156 nM.

T1 sequence (P25092 24-1073): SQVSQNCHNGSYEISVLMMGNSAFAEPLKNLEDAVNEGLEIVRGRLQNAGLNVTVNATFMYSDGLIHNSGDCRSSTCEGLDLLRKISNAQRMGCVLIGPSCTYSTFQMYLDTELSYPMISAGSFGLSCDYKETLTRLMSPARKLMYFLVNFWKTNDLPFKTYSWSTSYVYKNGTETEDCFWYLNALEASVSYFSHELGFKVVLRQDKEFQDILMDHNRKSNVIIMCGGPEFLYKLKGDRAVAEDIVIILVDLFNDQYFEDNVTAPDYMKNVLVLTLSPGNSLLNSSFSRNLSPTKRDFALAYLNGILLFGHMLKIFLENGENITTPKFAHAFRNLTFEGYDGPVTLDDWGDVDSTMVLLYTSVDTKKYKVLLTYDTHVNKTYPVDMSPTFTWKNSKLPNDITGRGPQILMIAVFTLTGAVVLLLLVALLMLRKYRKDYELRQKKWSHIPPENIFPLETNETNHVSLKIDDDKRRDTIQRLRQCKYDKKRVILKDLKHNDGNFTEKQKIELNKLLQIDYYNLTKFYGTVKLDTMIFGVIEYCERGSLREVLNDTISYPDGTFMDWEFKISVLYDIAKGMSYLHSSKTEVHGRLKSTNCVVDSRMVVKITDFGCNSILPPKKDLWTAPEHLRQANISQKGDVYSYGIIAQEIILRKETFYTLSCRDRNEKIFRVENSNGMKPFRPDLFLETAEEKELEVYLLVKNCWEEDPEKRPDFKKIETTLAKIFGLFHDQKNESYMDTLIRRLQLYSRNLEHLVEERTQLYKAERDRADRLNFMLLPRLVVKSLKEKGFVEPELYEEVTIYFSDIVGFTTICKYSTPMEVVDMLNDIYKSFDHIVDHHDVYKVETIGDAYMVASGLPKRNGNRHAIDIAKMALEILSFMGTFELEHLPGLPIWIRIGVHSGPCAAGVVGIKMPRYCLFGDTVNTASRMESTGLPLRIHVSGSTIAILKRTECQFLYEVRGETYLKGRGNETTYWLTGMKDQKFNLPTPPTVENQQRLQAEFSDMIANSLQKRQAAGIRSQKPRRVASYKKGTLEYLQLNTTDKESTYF

Question: With `C[C@@H]1NC(=O)[C@@H]2CCCN2C(=O)[C@H](CC(N)=O)NC(=O)[C@@H]2CSSC[C@H](N)C(=O)N[C@H]3CSSC[C@H](NC1=O)C(=O)N[C@@H]([C@@H](C)O)C(=O)NCC(=O)N[C@H](C(=O)N[C@@H](Cc1ccc(O)cc1)C(=O)O)CSSC[C@H](NC(=O)[C@H](Cc1ccc(O)cc1)NC(=O)[C@H](CCC(=O)O)NC3=O)C(=O)N2` [SEQ ID NO:3] (H-CCEYCCNPACTGCY-OH; disulfide 1-6, 2-10, 5-13; N-terminus and C-terminus assumed) as the compound, how does the “gastrointestinal motility upon chronic dosing” value [1] read?
Answer: effective

Question: What about the “response to CRD after partial restraint stress” value [2] of the same compound?
Answer: reduced the response to CRD after PRS

Question: And the “effect of pH on binding to the high affinity site, Ki1” value ([3]; pH 5, 7 and 8)?
Answer: not affected by pH

Question: What about the Ki ([3]; pH 5.0, T84 cells, read-out: Ki1 (high affinity site)) of the same compound?
Answer: 1.38 nM

Question: What about the Ki ([3]; pH 5.0, T84 cells, read-out: Ki2 (low affinity site)) of the same compound?
Answer: 17 nM

Question: And the Ki ([3]; pH 8.0, T84 cells, read-out: Ki1 (high affinity site))?
Answer: 0.6 nM

Question: What about the Ki ([3]; pH 8.0, T84 cells, read-out: Ki2 (low affinity site)) of the same compound?
Answer: 94.4 nM
